Earlier results in US8945630B2, “Method of producing and applications of composition of hypochlorous acid” (Aquilabs S.A., priority 2008, dated 2015).

Conditions: at 25° C.

dissociation constant: 2.9×10^−8
SMILES: OCl [Hypochlorous acid]
